pIC50: −log10 of the molar value.

The term pIC50 denotes the IC50 on a negative log10 scale, so that one unit is a factor of ten. One may read the melting point as the temperature of the solid-liquid transition.

Series [1] deals with T1, human glucocorticoid receptor (GR) complex (Homo sapiens, UniProt P04150).
T1 construct: made in house; host or cells: insect expression system (baculovirus lysate)
T1 sequence (P04150 1-777): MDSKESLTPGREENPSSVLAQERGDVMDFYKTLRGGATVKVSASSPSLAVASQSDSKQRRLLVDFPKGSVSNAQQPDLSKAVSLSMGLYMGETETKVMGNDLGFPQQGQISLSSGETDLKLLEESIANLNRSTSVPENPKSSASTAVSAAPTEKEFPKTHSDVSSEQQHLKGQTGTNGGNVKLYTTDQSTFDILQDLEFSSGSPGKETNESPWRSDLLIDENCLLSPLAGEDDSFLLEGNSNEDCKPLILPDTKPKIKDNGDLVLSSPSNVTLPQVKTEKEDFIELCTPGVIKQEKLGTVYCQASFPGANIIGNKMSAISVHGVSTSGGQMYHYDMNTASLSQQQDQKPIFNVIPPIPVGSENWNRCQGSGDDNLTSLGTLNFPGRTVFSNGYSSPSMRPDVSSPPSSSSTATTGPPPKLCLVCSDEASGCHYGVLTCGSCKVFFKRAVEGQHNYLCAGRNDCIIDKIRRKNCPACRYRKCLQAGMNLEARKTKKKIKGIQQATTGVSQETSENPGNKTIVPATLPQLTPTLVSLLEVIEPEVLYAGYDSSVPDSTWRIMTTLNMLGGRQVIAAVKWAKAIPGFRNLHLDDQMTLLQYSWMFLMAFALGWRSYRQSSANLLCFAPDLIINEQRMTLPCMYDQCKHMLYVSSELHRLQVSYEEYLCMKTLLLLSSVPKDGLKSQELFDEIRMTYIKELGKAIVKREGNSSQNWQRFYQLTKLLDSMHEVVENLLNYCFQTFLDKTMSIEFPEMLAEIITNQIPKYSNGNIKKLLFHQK
Nature of the series: Glucocorticoid receptor competitive binding assay (fluorescence polarization). As to conditions: competition with TAMRA-labeled dexamethasone, read-out: potent activity (IC50) in the GR binding assay. The procedure, abridged:
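Human GR complex in baculovirus insect-cell lysate (1:170) competed against 15 nM TAMRA-dexamethasone stock for 1 h at room temperature. Buffer: TES/KCl/molybdate/EDTA/CHAPS/glycerol/DTT, pH 7.4, 1% DMSO final. FP read at 550/580 nm; IC50 from 4-parameter logistic fit.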

The next series relates to glucocorticoid receptor. Nature of the series: Agonist activity in one or more of the above assays (GR cell assays). The class given is cell-based. As to conditions: in one or more of the above assays (assay not specified). How it is done:
Dexamethasone, a synthetic ligand to the glucocorticoid receptor (GR), induces expression of aromatase in human foreskin fibroblast cells. The activity of aromatase is measured by the conversion of testosterone to estradiol in culture media.
Human foreskin fibroblast cells (ATCC Cat. No. CRL-2429, designation CCD112SK) are plated on 96 well plates at 50,000 cells per well 5 days before use, in Iscove's Modified Dulbecco's Media (GibcoBRL Life Technologies Cat No. 12440-053) supplemented with 10% charcoal filtered FBS (Clonetech Cat No. SH30068) and Gentamycin (GibcoBRL Life Technologies Cat. No. 15710-064). On the day of the experiment, the media in the wells is replaced with fresh media. Cells are treated with test compounds to final concentrations of 10^−5 M to […], and testosterone to a final concentration of 300 ng/mL. Each well has a total volume of 100 μL. Samples are made in duplicates. Control wells include: (a) wells that receive testosterone only, and (b) wells that receive testosterone plus 2 μM of dexamethasone to provide maximum induction of aromatase. Plates are incubated at 37° C. overnight (15 to 18 hours), and supernatants are harvested at the end of incubation. Estradiol in the supernatant is measured using ELISA kits for estradiol (made by ALPCO, obtained from American Laboratory Products Cat. No. 020-DR-2693) according to the manufacture's instruction. The amount of estradiol is inversely proportional to the ELISA signals in each well. The extent of aromatase induction by test compounds is expressed as a relative percentage to dexamethasone. EC50 values of test compounds are derived by non-linear curve fitting.
Human foreskin fibroblast cells produce IL-6 in response to stimulation by pro-inflammatory cytokine IL-1.
Human foreskin fibroblast cells (ATCC Cat. No. CRL-2429) are plated on 96 well plates at 5,000 cells per well the day before use, in Iscove's Modified Dulbecco's Media (GibcoBRL Life Technologies Cat. No. 12440-053) supplemented with 10% charcoal filtered FBS (Clonetech Cat. No. SH30068) and Gentamycin (GibcoBRL Life Technologies Cat. No. 15710-064). On the next day, media in the wells is replaced with fresh media. Cells are treated with IL-1 (rhIL-1α, R&D Systems Cat. No. 200-LA) to a final concentration of 1 ng/mL, and with test compounds to final concentrations of 10^−5 M to 10^−8 M, in a total volume of 200 μL per well. Samples are done in duplicates. […] Positive control wells receive IL-1 only and represent maximum (or 100%) amount of IL-6 production. Plates are incubated at 37° C. overnight (15 to 18 hours), and supernatants are harvested at the end of incubation. IL-6 levels in the supernatants are determined by the ELISA kits for IL-6 (MedSystems Diagnostics GmbH, Vienna, Austria, Cat. No. BMS213TEN) according to manufacture's instructions. The extent of inhibition of IL-6 by test compounds is expressed in percentage relative to positive controls. IC50 values of test compounds are derived by non-linear curve fitting.
Evaluation of agonist or antagonist activity of compounds binding to the glucocorticoid receptor may be determined by any of the assays.
Testing of compounds for agonist or antagonist activity in induction of tyrosine aminotransferase (TAT) in rat hepatoma cells.
H4-II-E-C3 cells were incubated overnight in 96 well plates (20,000 cells/100 μL/well) in MEM medium containing 10% heat inactivated FBS and 1% nonessential amino acids. On the next day, cells were stimulated with the indicated concentrations of dexamethasone or test compound (dissolved in DMSO, final DMSO concentration 0.2%) for 18 hours. Control cells were treated with 0.2% DMSO. After 18 hours, the cells were lysed in a buffer containing 0.1% Triton X-100 and the TAT activity was measured in a photometric assay using tyrosine and alpha-ketoglutarate as substrates. […]

For `Cc1cc(C)c(S(=O)(=O)NC(CNc2cccc3c(C#N)cccc23)C(F)(F)F)c(C)c1` (stereo not drawn) [N-{1-[(5-Cyanonephthalen-1-ylamino)methyl]-2,2,2-trifluoroethyl}-2,4,6-trimethyl-benzenesulfonamide], the negative logarithm of the IC50 (pIC50) in series [1] was ≥ 7.00. Besides, in the series with glucocorticoid receptor, the “activity as an agonist of the glucocorticoid receptor function” value (shortened to “activity”) was “activity as an agonist”. Molecule `CC[C@@H](CNc1ccc(C)cc1C)NS(=O)(=O)c1c(N)cc(Cl)cc1Cl` returned a melting point of 151 °C. On to `Cc1cc(C)c(S(=O)(=O)NC(CSc2cccc3ccccc23)C(F)(F)F)c(C)c1` (stereo not drawn) [2,4,6-Trimethyl-N-[2,2,2-trifluoro-1-(naphthalen-1-ylsulfanylmethyl)ethyl]benzenesulfonamide], for which the pIC50 in series [1] is ≥ 7.00. The “activity” value in the series on glucocorticoid receptor is “activity as an agonist”.

Turning to `CC[C@@H](CNc1ccc(C)cc1C)NS(=O)(=O)c1c(N)cc(Cl)cc1Cl` [2-Amino-4,6-dichloro-N—{(S)-1-[(2,4-dimethylphenylamino)methyl]propyl}benzenesulfonamide], the pIC50 in series [1] is ≥ 7.00. Moreover, the “activity” value in the series on glucocorticoid receptor is given as “activity as an agonist”.

As to `CC[C@@H](CNc1cccc2ccccc12)NS(=O)(=O)c1c(N)cc(Cl)cc1Cl` [2-Amino-4,6-dichloro-N-[(S)-1-(naphthalen-1-ylaminomethyl)propyl]benzenesulfonamide], the negative-log IC50 (pIC50) in series [1] is ≥ 7.00. Further, the “activity” value in the series on glucocorticoid receptor is given as “activity as an agonist”. The matching figures for `Cc1cc(C)c(S(=O)(=O)NC(CNc2cccc3ccccc23)C(F)(F)F)c(C)c1` (stereo not drawn) [2,4,6-Trimethyl-N-[2,2,2-trifluoro-1-(naphthalen-1-ylaminomethyl)ethyl]benzenesulfonamide]: ≥ 7.00 and “activity as an agonist”.

With `Cc1cc(C)c(S(=O)(=O)NC(CNc2ccc(Cl)c3ccccc23)C(F)(F)F)c(C)c1` (stereo not drawn) [N-{1-[(4-Chloronaphthalen-1-ylamino)methyl]-2,2,2-trifluoroethyl}-2,4,6-trimethylbenzenesulfonamide], in series [1], the pIC50 is ≥ 7.00. Further, the “activity” value in the series with glucocorticoid receptor was “activity as an agonist”. In the case of `Cc1cc(C)c(S(=O)(=O)NC(CNc2ccc(C#N)cc2Cl)C(F)(F)F)c(C)c1` (stereo not drawn) [N-{1-[(2-Chloro-4-cyanophenylamino)methyl]-2,2,2-trifluoroethyl}-2,4,6-trimethylbenzenesulfonamide], in series [1], the negative-log IC50 (pIC50) was ≥ 7.00. Still for that read-out and setting: next, `Cc1cc(C)c(S(=O)(=O)NC(CNc2cc(C(F)(F)F)ccc2Cl)C(F)(F)F)c(C)c1` (stereo not drawn) [N-{1-[(2-Chloro-5-trifluoromethylphenylamino)methyl]-2,2,2-trifluoroethyl}-2,4,6-trimethylbenzenesulfonamide]: ≥ 7.00; `CCN(CC(NS(=O)(=O)c1c(C)cc(C)cc1C)C(F)(F)F)c1cccc(C)c1` (stereo not drawn) [N-{1-[(Ethyl-m-tolylamino)methyl]-2,2,2-trifluoroethyl}-2,4,6-trimethylbenzenesulfonamide]: ≥ 7.00; `Cc1cc(C)c(S(=O)(=O)NC(CNc2ccccc2Cl)C(F)(F)F)c(C)c1` (stereo not drawn) [N-{1-[(2-Chlorophenylamino)methyl]-2,2,2-trifluoroethyl}-2,4,6-trimethylbenzenesulfonamide]: ≥ 7.00. As for `Cc1cc(C)c(S(=O)(=O)NC(COc2cc(F)cc(C(F)(F)F)c2)C(F)(F)F)c(C)c1` (stereo not drawn) [2,4,6-Trimethyl-N-[2,2,2-trifluoro-1-(3-fluoro-5-trifluoromethylphenoxymethyl)ethyl]benzenesulfonamide], the pIC50 in series [1] is ≥ 7.00.

The values above are taken from US20100048950A1 (BOEHRINGER INGELHEIM INTERNATIONAL GMBH, priority 2007, published 2010).
